Earlier results as cited in patent US20070231312A1, “NUTRITIONAL SUPPLEMENT FOR PREGNANT FEMALES” (priority 2006, published 2007).

Key:
[1] = tested on: women at high risk for developing preeclampsia; conditions: treatment group; 1000 μg. per day for 6 to 8 weeks during late gestation; placebo 22.7%
[2] = supplementation in pregnancy
primigravida women = conditions: 2 mg. twice daily beginning at 16-20 wks; placebo 17.7%, P<0.05
glutathione peroxidase = conditions: placental homogenates from late human gestation
[3] = tested on: oxidative mitochondrial damage; conditions: in vitro studies, ischemia reperfusion model

## COC(=O)[C@@H](N)CCCNC(=N)N[N+](=O)[O-] [L-NAME, N^G-nitro-L-arginine methyl ester]
Pregnant rats
  effects on blood pressure, fetal growth and proteinuria: elevated blood pressure, fetal retarded growth and proteinuria

## [Se] [Selenium]
[1]
  incidence of pregnancy-induced hypertension: 7.7%

## CC1=C(/C=C/C(C)=C/C=C/C(C)=C/C=C/C=C(C)/C=C/C=C(C)/C=C/C2=C(C)CCCC2(C)C)C(C)(C)CCC1 [beta-carotene]
[2]
  level in maternal serum: increase

## CC(C)=CCC/C(C)=C/C=C/C(C)=C/C=C/C(C)=C/C=C/C=C(C)/C=C/C=C(C)/C=C/C=C(\C)CCC=C(C)C [lycopene, Lycopene]
Primigravida women
  women developing preeclampsia: 8.6%

## COc1ccc2[nH]cc(CCNC(C)=O)c2c1 [melatonin, Melatonin]
Glutathione peroxidase
  glutathione peroxidase activity: reduction
[3]
  protection against oxidative mitochondrial damage: protects against oxidative mitochondrial damage
